One assay has as its target T1, Caspase-1 (Homo sapiens, UniProt P29466).
T1 sequence (P29466 whole entry): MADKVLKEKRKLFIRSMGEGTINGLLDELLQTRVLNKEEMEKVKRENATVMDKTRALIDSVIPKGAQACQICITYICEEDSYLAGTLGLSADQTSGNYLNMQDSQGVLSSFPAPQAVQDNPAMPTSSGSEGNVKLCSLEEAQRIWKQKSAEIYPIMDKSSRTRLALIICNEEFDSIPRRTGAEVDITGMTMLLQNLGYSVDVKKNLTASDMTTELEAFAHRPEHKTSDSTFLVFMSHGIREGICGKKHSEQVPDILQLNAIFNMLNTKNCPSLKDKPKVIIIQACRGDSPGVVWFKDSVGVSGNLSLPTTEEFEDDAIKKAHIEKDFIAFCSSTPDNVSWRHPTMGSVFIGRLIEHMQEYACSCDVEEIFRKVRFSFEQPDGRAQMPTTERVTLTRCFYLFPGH
The experiment in a line: Inhibitory concentration against recombinant human caspase-1 in neuronal precursor (NT2) cells.

The target in another assay is T2, Caspase-3 (Homo sapiens, UniProt P42574).
T2 sequence (P42574 whole entry): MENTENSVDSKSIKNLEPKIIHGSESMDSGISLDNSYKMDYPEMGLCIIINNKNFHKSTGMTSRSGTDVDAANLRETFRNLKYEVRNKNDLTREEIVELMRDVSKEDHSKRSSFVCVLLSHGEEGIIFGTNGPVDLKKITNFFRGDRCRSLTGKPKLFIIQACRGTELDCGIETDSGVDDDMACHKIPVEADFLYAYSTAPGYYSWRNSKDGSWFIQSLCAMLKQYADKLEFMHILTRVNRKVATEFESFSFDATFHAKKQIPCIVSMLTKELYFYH
The experiment in a line: Inhibitory concentration against recombinant human caspase-3 in neuronal precursor (NT2) cells.

Another assay has as its target T3, Caspase-7 (Homo sapiens, UniProt P55210).
T3 sequence (P55210 whole entry): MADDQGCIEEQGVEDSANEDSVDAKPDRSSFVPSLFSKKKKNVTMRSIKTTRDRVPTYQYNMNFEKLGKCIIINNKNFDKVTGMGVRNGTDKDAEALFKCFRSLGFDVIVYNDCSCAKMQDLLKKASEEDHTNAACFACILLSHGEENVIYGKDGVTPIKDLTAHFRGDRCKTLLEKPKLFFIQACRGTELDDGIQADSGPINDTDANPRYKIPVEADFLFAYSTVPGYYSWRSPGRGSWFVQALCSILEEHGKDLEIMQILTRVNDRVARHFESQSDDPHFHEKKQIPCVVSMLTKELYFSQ
Description: Inhibitory concentration against recombinant human caspase-7 […].

For another assay, the target named is Caspase-8 (Homo sapiens, UniProt Q14790). Description: Inhibitory concentration against recombinant human caspase-8 […].
Sequence of Caspase-8 (Q14790 217-374 limits assumed): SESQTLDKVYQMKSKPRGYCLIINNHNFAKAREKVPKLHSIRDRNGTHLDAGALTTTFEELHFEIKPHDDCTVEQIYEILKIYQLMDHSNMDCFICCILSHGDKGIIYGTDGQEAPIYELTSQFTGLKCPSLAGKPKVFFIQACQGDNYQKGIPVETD
Sequence of Caspase-8 (Q14790 385-479 limits assumed): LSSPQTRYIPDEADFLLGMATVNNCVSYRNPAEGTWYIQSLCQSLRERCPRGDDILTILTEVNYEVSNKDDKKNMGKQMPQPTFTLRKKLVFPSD
The next assay relates to NT2. Description: Inhibitory concentration against camptothecin induced apoptosis in neuronal precursor (NT2) whole cells. In kind it is functional, cell-based. To be noted: Homo sapiens.

Each structure is given as a SMILES string. A value given as a limit tells only on which side of the number the result lay.

Turning to `CC[C@@H](C(=O)N[C@@H](CC(=O)O)C(=O)CSCc1ccccc1)n1cccc(NC(=O)[C@H](CC(=O)O)NC(C)=O)c1=O`, the IC50 was 60 nM at Caspase-1; 0.3 nM at Caspase-3; 10 nM on Caspase-7; 220 nM on Caspase-8; 5200 nM in the assay on NT2.
For the compound `CCC(C(=O)N[C@@H](CC(=O)O)C(C)=O)n1cc(C(C)(C)C)nc(NCc2nonc2C)c1=O` (stereo not given in full), the IC50 was 1230 nM at Caspase-1; 64 nM at Caspase-3; 480 nM at Caspase-7; 10000 nM at Caspase-8; 5120 nM with NT2.
Taken in the same sequence, the figures for `CCC(C(=O)N[C@@H](CC(=O)O)C(=O)CNCN1C2CCC1CC2)n1ccnc(NCc2nonc2C)c1=O` (stereo not given in full) were 880 nM, 23 nM, 260 nM, 9220 nM and 1450 nM.
Taken in the same sequence, the figures for `CCC(C(=O)N[C@@H](CC(=O)O)C(=O)CNCN1CCOCC1)n1cc(C(C)(C)C)nc(NCc2nonc2C)c1=O` (stereo not given in full) were 730 nM, 110 nM, 540 nM, > 10000 nM and 8620 nM.
Taken in the same sequence, the figures for `CCC(C(=O)N[C@@H](CC(=O)O)C(=O)c1ncc(-c2ccccc2)o1)n1ccnc(NCc2nonc2C)c1=O` (stereo not given in full) were 460 nM, 63 nM, 750 nM, 9570 nM and 8390 nM.
Take `CCCCN(C)CNCC(=O)[C@H](CC(=O)O)NC(=O)C(CC)n1ccnc(NCc2nonc2C)c1=O` (stereo not given in full): the IC50 was 31 nM on Caspase-1; 15 nM at Caspase-3; 130 nM on Caspase-7; > 10000 nM at Caspase-8; 300 nM in the assay with NT2.
Taken in the same sequence, the figures for `CCC(C(=O)N[C@@H](CC(=O)O)C(=O)CCCc1ccccc1)n1cc(C(C)(C)C)nc(NCc2nonc2C)c1=O` (stereo not given in full) were 5130 nM, 14 nM, 140 nM, 5280 nM and 1380 nM.
Taken in the same sequence, the figures for `CCCCCCN(C)CNCC(=O)[C@H](CC(=O)O)NC(=O)C(CC)n1cc(C(C)C)nc(NCc2nonc2C)c1=O` (stereo not given in full) were 63 nM, 13 nM, 65 nM, 9040 nM and 4.8 nM.
Taken in the same sequence, the figures for `CCCCCN(C)CNCC(=O)[C@H](CC(=O)O)NC(=O)C(CC)n1cc(C(C)(C)C)nc(NCc2nonc2C)c1=O` (stereo not given in full) were 110 nM, 0.1 nM, 36 nM, 5950 nM and 2.7 nM.
As to `CCC(C(=O)N[C@@H](CC(=O)O)C(=O)CNCN(C)C)n1ccnc(NCc2nonc2C)c1=O` (stereo not given in full), the IC50 at Caspase-1 was 890 nM; on Caspase-3, 42 nM; on Caspase-7, 310 nM; at Caspase-8, > 10000 nM; with NT2 it was 2640 nM.
The corresponding values for `CCC(C(=O)N[C@@H](CC(=O)O)C(=O)CN[C@@H](C)c1ccccc1)n1ccnc(NCc2nonc2C)c1=O` (stereo not given in full) are 64 nM, 14 nM, 1040 nM, 9260 nM and 1200 nM.
As to `CCOCN(C)CNCC(=O)[C@H](CC(=O)O)NC(=O)C(CC)n1ccnc(NCc2nonc2C)c1=O` (stereo not given in full), the IC50 at Caspase-1 is 1750 nM; on Caspase-3, 100 nM; on Caspase-7 it was 1010 nM; on Caspase-8, > 10000 nM; with NT2 it was 3990 nM.
Taken in the same sequence, the figures for `CCC(C(=O)N[C@@H](CC(=O)O)C(=O)CNCN(CC)CC)n1ccnc(NCc2nonc2C)c1=O` (stereo not given in full) were 1140 nM, 120 nM, 3240 nM, > 10000 nM and 3900 nM.
Taken in the same sequence, the figures for `CCCCCN(C)CNCC(=O)[C@H](CC(=O)O)NC(=O)C(CC)n1ccnc(NCc2nonc2C)c1=O` (stereo not given in full) were 48 nM, 13 nM, 110 nM, > 10000 nM and 300 nM.
Taken in the same sequence, the figures for `CCCN(C)CNCC(=O)[C@H](CC(=O)O)NC(=O)C(CC)n1ccnc(NCc2nonc2C)c1=O` (stereo not given in full) were 620 nM, 17 nM, 320 nM, > 10000 nM and 1420 nM.
Consider `CCC(C(=O)N[C@@H](CC(=O)O)C(=O)CNCN(C)CC)n1ccnc(NCc2nonc2C)c1=O` (stereo not given in full), for which the IC50 at Caspase-1 was 56 nM; at Caspase-3, 26 nM; on Caspase-7, 540 nM; at Caspase-8, > 10000 nM; with NT2, 1530 nM.
Taken in the same sequence, the figures for `CCCCCCN(C)CNCC(=O)[C@H](CC(=O)O)NC(=O)C(CC)n1ccnc(NCc2nonc2C)c1=O` (stereo not given in full) were 28 nM, 11 nM, 140 nM, > 10000 nM and 130 nM.
The corresponding values for `CCC(C(=O)N[C@@H](CC(=O)O)C(=O)CNCN1CCc2ccccc2C1)n1ccnc(NCc2nonc2C)c1=O` (stereo not given in full) are 13 nM, 13 nM, 83 nM, 7380 nM and 1250 nM.
The corresponding values for `CCC(C(=O)N[C@@H](CC(=O)O)C(=O)CSCc1ccccc1)n1ccnc(NCCc2nc(C)no2)c1=O` (stereo not given in full) are 900 nM, 80 nM, > 10000 nM, 9100 nM and 15300 nM.
As for `CCCCCCN(C)CNCC(=O)[C@H](CC(=O)O)NC(=O)C(CC)n1cc(C(C)(C)C)nc(NCc2nonc2C)c1=O` (stereo not given in full), the IC50 on Caspase-1 was 67 nM; at Caspase-3, 6 nM; at Caspase-7, 42 nM; at Caspase-8, 6480 nM; with NT2, 21 nM.
The corresponding values for `CCC(C(=O)N[C@@H](CC(=O)O)C(=O)CSCc1ccccc1)n1ccnc(NCCCc2nc(C)no2)c1=O` (stereo not given in full) are 1700 nM, 53 nM, 2600 nM, > 10000 nM and 7100 nM.
Regarding `CCCCCCN(C)CNCC(=O)[C@H](CC(=O)O)NC(=O)C(CC)n1cc(C(C)(CC)CC)nc(NCc2nonc2C)c1=O` (stereo not given in full), the IC50 at Caspase-1 was 110 nM; on Caspase-3, 16 nM; on Caspase-7, 87 nM; at Caspase-8, > 10000 nM; in the assay with NT2 it was 25 nM.
The corresponding values for `CCC(C(=O)N[C@@H](CC(=O)O)C(=O)CNCN1Cc2ccccc2C1)n1ccnc(NCc2nonc2C)c1=O` (stereo not given in full) are 8.7 nM, 14 nM, 130 nM, 4290 nM and 1520 nM.
The corresponding values for `CCC(C(=O)N[C@@H](CC(=O)O)C(=O)CNCN1CCCC1)n1ccnc(NCc2nonc2C)c1=O` (stereo not given in full) are 290 nM, 33 nM, 410 nM, 6220 nM and 840 nM.
Taken in the same sequence, the figures for `COc1ccc(S(C)(=O)=O)cc1CC(=O)N[C@H](C(=O)N[C@@H](CC(=O)O)C(=O)CSCc1ccccc1)C(C)C` were 1600 nM, 5 nM, 120 nM, 490 nM and 1000 nM.
As for `CCC(C(=O)N[C@@H](CC(=O)O)C(=O)CNCN1CCCCC1)n1cc(C(C)(C)C)nc(NCc2nonc2C)c1=O` (stereo not given in full), the half-inhibitory concentration (IC50) on Caspase-1 was 620 nM; at Caspase-3, 21 nM; at Caspase-7 it was 130 nM; on Caspase-8, > 10000 nM; in the assay with NT2 it was 290 nM.
Taken in the same sequence, the figures for `CCC(C(=O)N[C@@H](CC(=O)O)C(=O)CNCN1CCC(Cc2ccccc2)CC1)n1ccnc(NCc2nonc2C)c1=O` (stereo not given in full) were 47 nM, 56 nM, 840 nM, 6020 nM and 1620 nM.
The corresponding values for `CC(=O)N[C@@H](CC(=O)O)C(=O)N[C@@H](CCC(=O)O)C(=O)N[C@H](C(=O)N[C@@H](CC(=O)O)C(=O)CCCc1ccccc1)C(C)C` are 310 nM, 0.8 nM, 8 nM, 16 nM and 30000 nM.

By IC50 is commonly meant the concentration that inhibits the measured activity by half.

The values are drawn from ChEMBL document CHEMBL1144330, “Novel pyrazinone mono-amides as potent and reversible caspase-3 inhibitors” (Bioorg Med Chem Lett, 2005).
